In publication PMC10725351, “Niosomal formulation of mefenamic acid for enhanced cancer targeting; preparation, characterization and biodistribution study using radiolabeling technique” (Journal of Cancer Research and Clinical Oncology, 2023):

Assay: In vitro drug release study (dialysis bag, PBS pH 7.4, 37 °C) with kinetic model fitting
Assay type: physicochemical
Experimental: In comparison to the release of MEF from suspension, the MEF release from the optimal niosomal formulation was assessed. The dialysis method is the technique of choice for assessing the criteria of drug release from the niosomal formula. MEF release from niosomal formulation and suspension was monitored using a dialysis bag (MWCO12000 Da) at 37 °C for 24 h versus PBS (pH 7.4) to simulate the biological conditions. The optimal niosomes formula and suspension (1 ml of each) were loaded separately inside the dialysis tube, and the released quantity of MEF was evaluated in 100 ml of PBS with continuous stirring. At predefined intervals, (1, 2, 3, 4, 5, 6, 8, and 24 h), 2 ml of freshly formed PBS was added to replace two ml that were withdrawn from the release medium to assess the drug release rate. Lastly, the released concentrations of MEF were determined by examining the samples at 285 nm wavelength using a UV–visible spectrophotometer. This study was performed in triplicate (Targhi et al. [2021]).
The mathematical methodology utilized to determine the kinetics of the total released percentages (cumulative) of MEF from the niosomes formulation was linear regression analysis. These models include Higuchi, Korsmeyer Peppas, First Order, and Zero Order. In the end, the correlation coefficient values were compared to select the model that best fit the data. […]

Cc1cccc(Nc2ccccc2C(=O)O)c1C [MEF suspension, mefenamic acid]
Cumulative MEF release (after 24 h, PBS pH 7.4, 37 °C, dialysis bag): 55.36%
Order of permeation (best-fit release model): Diffusion
